Results on 12 compounds are retold here after patent US11066400B2, “Compounds for the treatment of cancer” (Hoffmann-La Roche Inc., priority 2015, dated 2021).

Each structure is given as a SMILES string.

Test [1] has as its system FoxM1_ΔVIIa / FoxM1_FL mRNA (FoxM1 gene splicing). The test is described as follows: Monitoring expression levels of FoxM1 splice variants using real-time quantitative PCR. The class given is cell-based. The settings on record: Fibroblast; human fibroblasts, 24 hours, RT-qPCR, Hill fit of concentration dependence curves. The procedure: Human fibroblasts were plated at 10,000 cells/well in 200 μl DMEM with GlutaMAX and 10% FBS in 96-well plates in a cell culture incubator (37° C., 5% CO2, 100% relative humidity). Cells were then treated with compounds at different concentrations (0.1-300 nM, each in 0.5% DMSO) in triplicate for 24 hours. RNA extraction was performed as per instructions mentioned in the Ambion® Cells-to-CT™ Kits from Applied Biosystems®. RNA samples were frozen at −20° C. until further analysis. Relative expression levels of full-length FoxM1 (FoxM1_FL) or FoxM1 lacking exon VIIa (FoxM1_ΔVIIa) with GAPDH for internal control, was measured using one-step multiplex reverse transcription-polymerase chain reaction (RT-PCR). TaqMan® FAM probes were used for relative quantitation of FoxM1_FL or FoxM1_ΔVIIa expression levels and TaqMan® VIC probes were used for relative quantitation of human GAPDH levels. The fidelity of the amplification methods was determined using the ΔΔCt relative quantification method for quantitative PCR.
To investigate an effect on splicing of FoxM1, human fibroblasts were treated for 24 hours with compounds of the present invention in dose response, and analysed by RT-qPCR for presence of mRNA including (FoxM1_FL) or excluding the exon VIIa (FoxM1_ΔVIIa). […] Correspondingly, the mRNAs for FoxM1_ΔVIIa declined. […] The resulting concentration dependence curves of the FoxM1_ΔVIIa splice variant were fitted to a Hill binding equation to yield IC50 values that are described in Table 1. […] Taken together, the data underline a splicing modifying activity in the FoxM1 gene.
(Quantitative PCR measures a nucleic acid by following its amplification.)

Another test relates to SMN protein. Particulars: taken from Activity Tables of WO 2014/028459, WO 2014/116845, WO 2015/017589; cited from earlier work.

Compound `CN(c1ccc(-c2ccc(C#N)cc2O)nn1)C1CC(C)(C)NC(C)(C)C1` [Compound 1, 3-hydroxy-4-(6-(methyl(2,2,6,6-tetramethylpiperidin-4-yl)amino)pyridazin-3-yl)benzonitrile] registered an IC50 in test [1] of 41 nM.
The compound `CN(c1ccc(-c2ccc(-c3cn[nH]c3)cc2O)nn1)C1CC(C)(C)NC(C)(C)C1` [Compound 2, 5-(1H-pyrazol-4-yl)-2-(6-(methyl(2,2,6,6-tetramethylpiperidin-4-yl)amino)pyridazin-3-yl)phenol] had an IC50 in test [1] of 0.9 nM.
Consider `CN(c1ccc(-c2ccc(-c3cnn(C)c3)cc2O)nn1)C1CC(C)(C)NC(C)(C)C1` [Compound 3, 2-(6-(methyl-(2,2,6,6-tetramethylpiperidin-4-yl)amino)pyridazin-3-yl)-5-(1-methyl-1H-pyrazol-4-yl)phenol], for which the IC50 in test [1] turned out to be 9.8 nM.
Turning to `CC1(C)CC(Oc2ccc(-c3ccc(-c4cn[nH]c4)cc3O)nn2)CC(C)(C)N1` [Compound 4], half-maximal inhibition in test [1] (IC50) required 17 nM.
In turn, `CC1(C)CC(Oc2ccc(-c3ccc(-n4cccn4)cc3O)nn2)CC(C)(C)N1` [Compound 5] yielded an IC50 in test [1] of 278 nM.
For the compound `CN(c1ccc(-c2ccc(-c3ccc(=O)n(C)c3)cc2O)nn1)C1CC(C)(C)NC(C)(C)C1` [Compound 7, 5-(3-hydroxy-4-(6-(methyl-(2,2,6,6-tetramethylpiperidin-4-yl)amino)pyridazin-3-yl)phenyl)-1-methylpyridin-2(1H)-one], in test [1], the IC50 amounted to 167 nM.
On the same count and under the same terms, the value for `CN(c1ccc(-c2cc3ccccc3cc2O)nn1)C1CC(C)(C)NC(C)(C)C1` [Compound 8, 3-(6-(methyl(2,2,6,6-tetramethylpiperidin-4-yl)amino)pyridazin-3-yl)naphthalen-2-ol] was 3.7 nM; that for `CN(c1ccc(-c2cc3ccc(O)cc3cc2O)nn1)C1CC(C)(C)NC(C)(C)C1` [Compound 9, 3-(6-(methyl-(2,2,6,6-tetramethylpiperidin-4-yl)amino)pyridazin-3-yl)naphthalene-2,7-diol] was 0.7 nM; that for `COc1ccc2cc(-c3ccc(N(C)C4CC(C)(C)NC(C)(C)C4)nn3)c(O)cc2c1` [Compound 11, 7-methoxy-3-(6-(methyl(2,2,6,6-tetramethylpiperidin-4-yl)amino)pyridazin-3-yl)naphthalen-2-ol] was 0.8 nM.
The compound `CN(c1nnc(-c2ccc(-c3cn[nH]c3)cc2Cl)s1)C1CC(C)(C)NC(C)(C)C1` [Compound 12, 5-(2-Chloro-4-(1H-pyrazol-4-yl)phenyl)-N-methyl-N-(2,2,6,6-tetramethylpiperidin-4-yl)-1,3,4-thiadiazol-2-amine] displayed an IC50 in test [1] of 265 nM. The EC50 in the test with SMN protein is 34 nM.
In turn, `CN(c1nnc(-c2ccc(-c3ccn(C)c(=O)c3)cc2Cl)s1)C1CC(C)(C)NC(C)(C)C1` [Compound 13, 4-(3-chloro-4-(5-(methyl(2,2,6,6-tetramethylpiperidin-4-yl)amino)-1,3,4-thiadiazol-2-yl)phenyl)-1-methylpyridin-2(1H)-one] returned an IC50 in test [1] of 345 nM. For the same compound, the EC50 in the test on SMN protein was 50 nM.
In test [1], `CN(c1nnc(-c2cc(F)c(-c3ccn[nH]3)cc2F)s1)C1CC(C)(C)NC(C)(C)C1` [Compound 14, 5-(2,5-difluoro-4-(1H-pyrazol-5-yl)phenyl)-N-methyl-N-(2,2,6,6-tetramethylpiperidin-4-yl)-1,3,4-thiadiazol-2-amine] gave a concentration for half-maximal inhibition (IC50) of 144 nM. For the same compound, the concentration giving a half-maximal response (EC50) with SMN protein is 85 nM.

The IC50 is the point on the concentration scale where inhibition reaches its midpoint. Low readings indicate higher potency, high ones lower potency. Usually EC50 stands for the concentration giving half of the maximal effect.
